Among the data in patent US9850251B2, “Imidazole derivative used as antiviral agent and use therof in preparation of medicament” (priority 2013, dated 2017) are EC50 and CC50 values, retold here.

The subject of series [1] is RSV respiratory tract virus (A long strain). The experiment in a line: RSV long CPE assay (cytopathic effect assay), EC50. Format: cell-based. As to conditions: human respiratory syncytial virus, HEp-2, 120 h; Hep2 cells infected with RSV A long strain, 5 days, CCK-8 readout. On the procedure: (§1) Detect EC50 and CC50 values of anti RSV respiratory tract virus compounds through the cytopathic effect assay.
Virus strain: RSV respiratory tract virus (A long strain)
(§2) The cell plate was centrifugated (300 rpm) to make the cells adherent to the wall, placed into a 37° C., 5% CO2 incubator overnight.
(§3) 1) the compound in 100% DMSO underwent a semi logarithmic dilution, then was added to the cell plate with a Echo liquid handler. Ensure that the final concentration of DMSO was 1%;
(§4) 2) Cell-control hole: no compound and viruse were added; virus-control hole: no compound was added.
dilute RSV viruses to 100 TCID50/30 μL with medium cultured with 4° C. cells, and then add the diluted viruses to a cell plate (30 μL/hole) with Multidrop® automatic liquid distributor, and then placed into a 37° C., 5% CO2 culture incubator for 5 days.
1) after 5 days, observe the pathological change in each hole.
(§5) 2) add CCK-8 (Dojindo-CK04-20, 6 μL/hole) to 384 well plate with Multidrop® automatic liquid distributor;
(§6) 3) place the plate at a 37° C., 5% CO2 culture incubator for 3˜4 h, read the absorbance value with SPECTRA max 340PC_Molecular device at 450 nm and 630 nm;
Background: Damage to the host cells serves as the signal in cytopathic effect assays.

Series [2] in a line: RSV long CPE assay (cytopathic effect assay), CC50 toxicity in vitro. It is filed as cell-based. As to conditions: human, Hep2 cells, CCK-8 readout, top concentration 100 μM. On the procedure:
as §1, §2, §3, §4, §5, §6

SMILES strings stand for the structures.

Usually EC50 stands for the concentration giving half of the maximal effect. Usually CC50 stands for the concentration giving 50% cytotoxicity. Lower therefore signals greater toxicity to the cells.

With `CC(C)OC(=O)N1CC2(C1)C(=O)N(Cc1nc3c(n1CCCC(F)(F)F)C(O)CCC3)c1ccccc12` (stereo not shown) [Embodiment 109, Isopropyl 1′-((7-hydroxy-1-(4,4,4-trifluorobutyl)-4,5,6,7-tetrahydro-1H-benzo[d]imidazol-2-yl)methyl)-2′-oxospiro[azetidine-3,3′-indoline]-1-carboxylate], the concentration for a half-maximal effect (EC50) in series [1] fell in the range of 100 to 1000 nM. Moreover, in series [2], the cytotoxic concentration (CC50) at 5 days is > 100000 nM.
On to `CCOC(=O)N1CC2(C1)C(=O)N(Cc1nc3c(n1CCC(C)C)CCCC3)c1ccccc12` [Embodiment 72, Ethyl 1′-((1-isopentyl-4,5,6,7-tetrahydro-1H-benzo[d]imidazol-2-yl)methyl)-2′-oxospiro[azetidine-3,3′-indoline]-1-carboxylate], for which the EC50 in series [1] is < 100 nM. For the same compound, the half-maximal cytotoxic concentration (CC50) at 5 days in series [2] is > 100000 nM.
In the same order, the values of `CCOC(=O)N1CC2(C1)C(=O)N(Cc1nc3c(n1CCCC#N)CCCC3)c1ccccc12` [Embodiment 74, Ethyl 1′-((1-(3-cyanopropyl)-4,5,6,7-tetrahydro-1H-benzo[d]imidazol-2-yl)methyl)-2′-oxospiro[azetidine-3,3′-indoline]-1-carboxylate] are < 100 nM and > 100000 nM.
In the same order, the values of `CC(C)S(=O)(=O)N1CC2(C1)C(=O)N(Cc1nc3c(n1CCCC(F)(F)F)CCCC3)c1ccccc12` [Embodiment 99, 1-(Isopropylsulfonyl)-1′-((1-(4,4,4-trifluorobutyl)-4,5,6,7-tetrahydro-1H-benzo[d]imidazol-2-yl)methyl)spiro[azetidine-3,3′-indoline]-2′-one] are < 100 nM and > 100000 nM.
Regarding `CC(C)OC(=O)N1CC2(C1)C(=O)N(Cc1nc3c(n1CCCCO)CCCC3)c1ccccc12` [Embodiment 62, Isopropyl 1′-((1-(4-hydroxybutyl)-4,5,6,7-tetrahydro-1H-benzo[d]imidazol-2-yl)methyl)-2′-oxospiro[azetidine-3,3′-indoline]-1-carboxylate], the EC50 in series [1] was < 100 nM. Besides, the half-maximal cytotoxic concentration (CC50) at 5 days in series [2] is > 100000 nM.
On to `CC(C)OC(=O)N1CC2(C1)C(=O)N(Cc1nc3c(n1CCCCO)CCCC3)c1cccc(Cl)c12` [Embodiment 85, Isopropyl 4′-chloro-1′-((1-(4-hydroxybutyl)-4,5,6,7-tetrahydro-1H-benzo[d]imidazol-2-yl)methyl)-2′-oxospiro[azetidine-3,3′-indoline]-1-carboxylate], for which the concentration for a half-maximal effect (EC50) in series [1] was < 100 nM. Further, the CC50 in series [2] (5 days) is > 100000 nM.
Consider `CC(C)OC(=O)N1CC2(C1)C(=O)N(Cc1nc3c(n1CCCC(F)(F)F)CCCC3)c1cccc(Cl)c12` [Embodiment 86, Isopropyl 4′-chloro-2′-oxo-1′-((1-(4,4,4-trifluorobutyl)-4,5,6,7-tetrahydro-1H-benzo[d]imidazol-2-yl)methyl)spiro[azetidine-3,3′-indoline]-1-carboxylate], for which the EC50 in series [1] was < 100 nM. The cytotoxic concentration (CC50) at 5 days in series [2] was > 100000 nM.
As to `CCOC(=O)N1CC2(C1)C(=O)N(Cc1nc3c(n1CCCC(F)(F)F)CCCC3)c1ccccc12` [Embodiment 75, Ethyl 2′-oxo-1′-((1-(4,4,4-trifluorobutyl)-4,5,6,7-tetrahydro-1H-benzo[d]imidazol-2-yl)methyl)spiro[azetidine-3,3′-indoline]-1-carboxylate], in series [1], the EC50 is < 100 nM. For the same compound, the CC50 at 5 days in series [2] is > 100000 nM.
As to `O=CN1CC2(C1)C(=O)N(Cc1nc3c(n1CCCC(F)(F)F)CCCC3)c1ccccc12` [Embodiment 90, 2′-Oxo-1′-((1-(4,4,4-trifluorobutyl)-4,5,6,7-tetrahydro-1H-benzo[d]imidazol-2-yl)methyl)spiro[azetidine-3,3′-indoline]-1-carbaldehyde], the 50% effective concentration (EC50) in series [1] was < 100 nM. In addition, the cytotoxic concentration (CC50) at 5 days in series [2] is > 100000 nM.
For `CC(C)OC(=O)N1CC2(C1)C(=O)N(Cc1nc3c(n1CCCC(F)(F)F)CCCC3)c1cc(Cl)ccc12` [Embodiment 81, Isopropyl 6′-chloro-2′-oxo-1′-((1-(4,4,4-trifluorobutyl)-4,5,6,7-tetrahydro-1H-benzo[d]imidazol-2-yl)methyl)spiro[azetidine-3,3′-indoline]-1-carboxylate] the same measures were < 100 nM and > 100000 nM.
For `CCC(=O)N1CC2(C1)C(=O)N(Cc1nc3c(n1CCCC(F)(F)F)CCCC3)c1ccccc12` [Embodiment 94, 1-Propionyl-1′-((1-(4,4,4-trifluorobutyl)-4,5,6,7-tetrahydro-1H-benzo[d]imidazol-2-yl)methyl)spiro[azetidine-3,3′-indoline]-2′-one] the same measures were < 100 nM and > 100000 nM.
As to `CCOC(=O)N1CC2(C1)C(=O)N(Cc1nc3c(n1CCCC(F)(F)F)CCCC3)c1cnccc12` [Embodiment 87, Ethyl 2′-oxo-1′-((1-(4,4,4-trifluorobutyl)-4,5,6,7-tetrahydro-1H-benzo[d]imidazol-2-yl)methyl)-1′,2′-dihydrospiro[azetidine-3,3′-pyrrolo[2,3-c]pyridine]-1-carboxylate], the EC50 in series [1] was < 100 nM. Besides, the CC50 at 5 days in series [2] was > 100000 nM.
For `CC(C)OC(=O)N1CC2(C1)C(=O)N(Cc1nc3c(n1CCCCO)CCCC3)c1ccc(Br)cc12` [Embodiment 78, Isopropyl 5′-bromo-1′-((1-(4-hydroxybutyl)-4,5,6,7-tetrahydro-1H-benzo[d]imidazol-2-yl)methyl)-2′-oxospiro[azetidine-3,3′-indoline]-1-carboxylate] the same measures were < 100 nM and > 100000 nM.
Consider `CCOC(=O)N1CC2(C1)C(=O)N(Cc1nc3c(n1CCCS(C)(=O)=O)CCCC3)c1ccccc12` [Embodiment 76, Ethyl 1′-((1-(3-(methylsulfonyl)propyl)-4,5,6,7-tetrahydro-1H-benzo[d]imidazol-2-yl)methyl)-2′-oxospiro[azetidine-3,3′-indoline]-1-carboxylate], for which, in series [1], the 50% effective concentration (EC50) is < 100 nM. Besides, the cytotoxic concentration (CC50) at 5 days in series [2] is > 100000 nM.
In the case of `CC(C)OC(=O)N1CC2(C1)C(=O)N(Cc1nc3c(n1CCCC(F)(F)F)CCCC3)c1cnccc12` [Embodiment 88, Isopropyl 2′-oxo-1′-((1-(4,4,4-trifluorobutyl)-4,5,6,7-tetrahydro-1H-benzo[d]imidazol-2-yl)methyl)-1′,2′-dihydrospiro[azetidine-3,3′-pyrrolo[2,3-c]pyridine]-1-carboxylate], in series [1], the EC50 is < 100 nM. The half-maximal cytotoxic concentration (CC50) at 5 days in series [2] is > 100000 nM.
For the compound `CC(C)OC(=O)N1CC2(C1)C(=O)N(Cc1nc3c(n1CC(=O)C(C)C)CCCC3)c1ccccc12` [Embodiment 68, Isopropyl 1′-((1-(3-methyl-2-oxobutyl)-4,5,6,7-tetrahydro-1H-benzo[d]imidazol-2-yl)methyl)-2′-oxospiro[azetidine-3,3′-indoline]-1-carboxylate], the EC50 in series [1] was in the range of 100 to 1000 nM. The CC50 at 5 days in series [2] was > 100000 nM.
Take `CCOC(=O)N1CC2(C1)C(=O)N(Cc1nc3c(n1CCCC(F)(F)F)CCCC3)c1cc(F)ccc12` [Embodiment 83, Ethyl 6′-fluoro-2′-oxo-1′-((1-(4,4,4-trifluorobutyl)-4,5,6,7-tetrahydro-1H-benzo[d]imidazol-2-yl)methyl)spiro[azetidine-3,3′-indoline]-1-carboxylate]: the EC50 in series [1] was < 100 nM. Besides, the CC50 at 5 days in series [2] is > 100000 nM.
